Assay results as given in US11008346B2, “Beta-lactamase inhibitors” (priority 2014, dated 2021).

Experiments:
[1] = molecular target: T1, SHV-5 β-lactamase (Klebsiella pneumoniae, UniProt P0A3M1); assay: β-lactamase enzyme inhibition, SHV-5; assay type: biochemical
T1 construct: made in house; host or cells: E. coli BL21(DE3)
In short: (§1)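 IC50 was the inhibitor concentration halving the initial hydrolysis rate versus no-inhibitor wells, following a 15 min 37° C. enzyme–inhibitor preincubation. Substrates: imipenem read at 300 nm for KPC-2, cefotaxime at 260 nm for SHV-5, and nitrocefin (100 μM final) at 486 nm for OXA-1 and p99 AmpC. Enzymes were recombinant untagged proteins from E. coli BL21(DE3).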

[2] = molecular target: T2, KPC-2 β-lactamase (Klebsiella pneumoniae, UniProt Q9F663); assay: β-lactamase enzyme inhibition, KPC-2; assay type: biochemical; settings: imipenem substrate, 300 nm; 15 min at 37° C. preincubation; read-out: IC50 KPC-2 (Class A)
T2 construct: made in house; host or cells: E. coli BL21(DE3)
In short: as §1

[3] = molecular target: T3, VIM-2 metallo β-lactamase (Pseudomonas aeruginosa, UniProt Q9K2N0); assay: β-lactamase enzyme inhibition, VIM-2; assay type: biochemical; settings: Nitrocefin 100 μM, 486 nm; 15 min at 37° C. preincubation; read-out: IC50 VIM-2 (Class B)
T3 construct: made in house; host or cells: E. coli BL21(DE3)
In short: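 Inhibitor and enzyme sat together 15 min at 37° C before 100 μM nitrocefin (final) was added and 486 nm absorbance read for 10 min. IC50 is the concentration halving initial hydrolysis rate relative to uninhibited wells. Protein came from Q sepharose anion exchange at pH 7.5, repeated to >90% purity.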

[4] = molecular target: T4, p99 AmpC β-lactamase (Enterobacter cloacae, UniProt P05364); assay: β-lactamase enzyme inhibition, p99 AmpC; assay type: biochemical
T4 construct: made in house; host or cells: E. coli BL21(DE3)
In short: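 Inhibitor and enzyme were incubated 15 min at 37°C first. The enzyme was recombinant p99 AmpC, untagged, from E. coli BL21(DE3), purified by ion-exchange and size-exclusion chromatography.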

[5] = molecular target: T5, OXA-1 β-lactamase (Escherichia coli, UniProt P13661); assay: β-lactamase enzyme inhibition, OXA-1; assay type: biochemical; settings: Nitrocefin 100 μM, 486 nm; 15 min at 37° C. preincubation; read-out: IC50 OXA-1 (Class D)
T5 construct: made in house; host or cells: E. coli BL21(DE3)
In short: as §1

[6] = system: E. coli ESBL4 expressing CTX-M-15; assay: broth microdilution MIC, E. coli CTX-M-15; assay type: cell-based; settings: Fixed CAZ (ceftazidime) 4 μg/mL
In short: (§2)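 CAMHB; strains pre-grown 3-5 h. Test cpd 2-fold dilutions, 32→0.25 μg/mL final, + beta-lactam static 4 μg/mL. CLSI inoculation, 16-20 h at 37° C, visual MIC.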

[7] = system: E. cloacae 144200 expressing Class C P99 AmpC; assay: broth microdilution MIC, E. cloacae P99; assay type: cell-based; settings: Fixed CAZ (ceftazidime) 4 μg/mL
In short: as §2

[8] = system: K. pneumoniae 156319 expressing KPC-3; assay: broth microdilution MIC, K. pneumoniae KPC-3; assay type: cell-based; settings: Fixed Mero (meropenem) 4 μg/mL
In short: as §2

[9] = system: P. aeruginosa Ps296 expressing VIM-2; assay: broth microdilution MIC, P. aeruginosa VIM-2; assay type: cell-based; settings: Fixed Mero (meropenem) 4 μg/mL
In short: as §2

[10] = system: K. pneumoniae A-1797 expressing KPC-2 and VIM-4; assay: broth microdilution MIC, K. pneumoniae KPC-2 and VIM-4; assay type: cell-based; settings: Fixed Mero (meropenem) 4 μg/mL
In short: as §2

[11] = system: S. aureus MSSA-7 producing penicillinase PC-1; assay: broth microdilution MIC, S. aureus PC-1; assay type: cell-based; settings: Fixed Pip (piperacillin) 4 μg/mL
In short: as §2

T2 sequence (Q9F663 25-293, looked up): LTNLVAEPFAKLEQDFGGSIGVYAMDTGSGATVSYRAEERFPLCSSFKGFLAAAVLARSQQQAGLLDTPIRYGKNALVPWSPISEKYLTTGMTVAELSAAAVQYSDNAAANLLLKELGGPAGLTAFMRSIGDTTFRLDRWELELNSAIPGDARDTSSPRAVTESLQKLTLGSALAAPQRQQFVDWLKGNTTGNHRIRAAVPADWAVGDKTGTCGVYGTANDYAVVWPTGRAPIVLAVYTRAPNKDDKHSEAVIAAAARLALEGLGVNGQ
T5 sequence (P13661 26-276): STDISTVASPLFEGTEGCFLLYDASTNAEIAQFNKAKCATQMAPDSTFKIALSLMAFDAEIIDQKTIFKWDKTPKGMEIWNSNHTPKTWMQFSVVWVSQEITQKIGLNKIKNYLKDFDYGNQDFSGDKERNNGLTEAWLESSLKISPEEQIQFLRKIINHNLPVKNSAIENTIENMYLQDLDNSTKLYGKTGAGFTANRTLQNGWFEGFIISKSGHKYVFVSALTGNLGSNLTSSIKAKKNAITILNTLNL
T4 sequence (P05364 21-381): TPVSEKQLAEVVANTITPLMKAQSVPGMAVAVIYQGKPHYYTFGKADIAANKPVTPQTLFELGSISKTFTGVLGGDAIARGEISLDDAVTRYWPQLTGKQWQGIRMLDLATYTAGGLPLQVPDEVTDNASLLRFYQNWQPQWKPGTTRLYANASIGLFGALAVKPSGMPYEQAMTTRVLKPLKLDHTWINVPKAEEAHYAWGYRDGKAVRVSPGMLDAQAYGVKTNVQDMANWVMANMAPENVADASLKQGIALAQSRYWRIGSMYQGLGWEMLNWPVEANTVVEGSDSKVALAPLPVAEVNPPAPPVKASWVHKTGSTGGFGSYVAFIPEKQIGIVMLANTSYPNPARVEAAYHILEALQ
T1 sequence (P0A3M1 22-286): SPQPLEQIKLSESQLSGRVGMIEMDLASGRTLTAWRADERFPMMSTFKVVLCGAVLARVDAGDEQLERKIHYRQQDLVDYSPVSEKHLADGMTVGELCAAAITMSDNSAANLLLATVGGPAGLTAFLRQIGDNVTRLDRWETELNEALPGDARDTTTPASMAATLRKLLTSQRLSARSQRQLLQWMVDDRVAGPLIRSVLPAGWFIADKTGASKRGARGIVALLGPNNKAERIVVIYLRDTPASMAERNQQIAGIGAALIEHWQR

SMILES | IC50 [1] | IC50 [2] | IC50 [3] | IC50 [4] | IC50 [5] | MIC of exemplary compounds in presence of fixed β-lactams, E. coli ESBL4 CTX-M-15 [6] | MIC of exemplary compounds in presence of fixed β-lactams, E. cl. 144200 p99 AmpC [7] | MIC of exemplary compounds in presence of fixed β-lactams, K.P. 156319 KPC-3 [8] | MIC of exemplary compounds in presence of fixed β-lactams, P. aerug. Ps296 VIM-2 [9] | MIC of exemplary compounds in presence of fixed β-lactams, K.P. A-1797 KPC-2 VIM-4 [10] | MIC of exemplary compounds in presence of fixed β-lactams, S. aureus MSSA-7 PC-1 [11]
O=C(CCn1cccn1)N[C@H]1Cc2cccc(C(=O)O)c2OB1O [Example 28, (R)-2-Hydroxy-3-(3-pyrazol-1-yl-propionylamino)-3,4-dihydro-2H-benzo[e][1,2]oxaborinine-8-carboxylicacid] | < 0.1 µM | < 0.1 µM | 1 to 10 µM | < 0.1 µM | < 0.1 µM | C (C represents the MIC in the presence of ≤4 g/mL of a β-lactamase inhibitor) | C (C represents the MIC in the presence of ≤4 g/mL of a β-lactamase inhibitor) | C (C represents the MIC in the presence of ≤4 g/mL of a β-lactamase inhibitor) | B (B represents the MIC in the presence of between 8 and 32 g/mL of a β-lactamase inhibitor) | B (B represents the MIC in the presence of between 8 and 32 g/mL of a β-lactamase inhibitor) | C (C represents the MIC in the presence of ≤4 g/mL of a β-lactamase inhibitor)
O=C(CCn1ccnc1)N[C@H]1Cc2cccc(C(=O)O)c2OB1O [Example 29, (R)-2-Hydroxy-3-(3-imidazol-1-yl-propionylamino)-3,4-dihydro-2H-benzo[e][1,2]oxaborinine-8-carboxylic acid] | < 0.1 µM | < 0.1 µM | 1 to 10 µM | < 0.1 µM | < 0.1 µM | C (C represents the MIC in the presence of ≤4 g/mL of a β-lactamase inhibitor) | C (C represents the MIC in the presence of ≤4 g/mL of a β-lactamase inhibitor) | C (C represents the MIC in the presence of ≤4 g/mL of a β-lactamase inhibitor) | C (C represents the MIC in the presence of ≤4 g/mL of a β-lactamase inhibitor) | A (A represents an MIC of the fixed β-lactam antibiotic in the presence of >32 g/mL of a β-lactamase inhibitor) | C (C represents the MIC in the presence of ≤4 g/mL of a β-lactamase inhibitor)
O=C(CN1CCOC1=O)N[C@H]1Cc2cccc(C(=O)O)c2OB1O [Example 30, (R)-2-Hydroxy-3-[2-(2-oxo-oxazolidin-3-yl)-acetylamino]-3,4-dihydro-2H-benzo[e][1,2]oxaborinine-8-carboxylicacid] | < 0.1 µM | < 0.1 µM | 0.1 to 1 µM | < 0.1 µM | < 0.1 µM | C (C represents the MIC in the presence of ≤4 g/mL of a β-lactamase inhibitor) | C (C represents the MIC in the presence of ≤4 g/mL of a β-lactamase inhibitor) | C (C represents the MIC in the presence of ≤4 g/mL of a β-lactamase inhibitor) | C (C represents the MIC in the presence of ≤4 g/mL of a β-lactamase inhibitor) | C (C represents the MIC in the presence of ≤4 g/mL of a β-lactamase inhibitor) | C (C represents the MIC in the presence of ≤4 g/mL of a β-lactamase inhibitor)
O=C(CCc1nccs1)N[C@H]1Cc2cccc(C(=O)O)c2OB1O [Example 31, (R)-2-hydroxy-3-(3-(thiazol-2-yl)propanamido)-3,4-dihydro-2H-benzo[e][1,2]oxaborinine-8-carboxylic acid] | < 0.1 µM | < 0.1 µM | 1 to 10 µM | < 0.1 µM | < 0.1 µM | C (C represents the MIC in the presence of ≤4 g/mL of a β-lactamase inhibitor) | C (C represents the MIC in the presence of ≤4 g/mL of a β-lactamase inhibitor) | C (C represents the MIC in the presence of ≤4 g/mL of a β-lactamase inhibitor) | C (C represents the MIC in the presence of ≤4 g/mL of a β-lactamase inhibitor) | B (B represents the MIC in the presence of between 8 and 32 g/mL of a β-lactamase inhibitor) | C (C represents the MIC in the presence of ≤4 g/mL of a β-lactamase inhibitor)
O=C(CCc1cncs1)N[C@H]1Cc2cccc(C(=O)O)c2OB1O [Example 32, (R)-2-hydroxy-3-(3-(thiazol-5-yl)propanamido)-3,4-dihydro-2H-benzo[e][1,2]oxaborinine-8-carboxylicacid] | < 0.1 µM | < 0.1 µM | 1 to 10 µM | < 0.1 µM | < 0.1 µM | C (C represents the MIC in the presence of ≤4 g/mL of a β-lactamase inhibitor) | C (C represents the MIC in the presence of ≤4 g/mL of a β-lactamase inhibitor) | C (C represents the MIC in the presence of ≤4 g/mL of a β-lactamase inhibitor) | C (C represents the MIC in the presence of ≤4 g/mL of a β-lactamase inhibitor) | B (B represents the MIC in the presence of between 8 and 32 g/mL of a β-lactamase inhibitor) | C (C represents the MIC in the presence of ≤4 g/mL of a β-lactamase inhibitor)
O=C(CN1CCCC1=O)N[C@H]1Cc2cccc(C(=O)O)c2OB1O [Example 33, (R)-2-Hydroxy-3-[2-(2-oxo-pyrrolidin-1-yl)-acetylamino]-3,4-dihydro-2H-benzo[e][1,2]oxaborinine-8-carboxylic acid] | < 0.1 µM | < 0.1 µM | 1 to 10 µM | < 0.1 µM | < 0.1 µM | C (C represents the MIC in the presence of ≤4 g/mL of a β-lactamase inhibitor) | C (C represents the MIC in the presence of ≤4 g/mL of a β-lactamase inhibitor) | C (C represents the MIC in the presence of ≤4 g/mL of a β-lactamase inhibitor) | C (C represents the MIC in the presence of ≤4 g/mL of a β-lactamase inhibitor) | C (C represents the MIC in the presence of ≤4 g/mL of a β-lactamase inhibitor) | C (C represents the MIC in the presence of ≤4 g/mL of a β-lactamase inhibitor)
